Experimental data as given in patent US20260285857A1, “BICYCLIC AND HETEROCYCLIC AMIDE COMPOUNDS” (priority 2024, published 2026).
Read-outs that look alike come from different tables or passages of the source.

Test system: immunoglobulin light chain protein WIL-FL T46L
Assay: Differential scanning fluorimetry (thermal shift) assay
Type: binding
[1] = Table B, temperature shift [Tm]compound-[Tm]vehicle, recombinant WIL-FL T46L
[2] = Table A, temperature shift [Tm]compound-[Tm]vehicle, recombinant WIL-FL T46L

Row | Compound | DSF [1] | DSF [2] | other results
1 | Cc1cc(N2CC[C@](C)(c3ccccc3)C2)cn2nc(C(=O)NC3CC[C@@]4(CCN(c5cccc(C(=O)O)n5)C4)C3)nc12 (mixture of isomers) [Compound 634, 6-[rac-(5R)-8-[[8-methyl-6-[rac-(3R)-3-methyl-3-phenyl-pyrrolidin-1-yl]-[1,2,4]triazolo[1,5-a]pyridine-2-carbonyl]amino]-2-azaspiro[4.4]nonan-2-yl]pyridine-2-carboxylic acid] | ***** (>2.5° C.=*****) |  | 
2 | CCS(=O)(=O)NCC12COC(c3nc4c(C)cc(N5CC[C@](C)(c6ccccc6)C5)cn4n3)(C1)C2CO (stereo partly drawn) [Compound 583, N-((5-(hydroxymethyl)-1-(8-methyl-6-((R)-3-methyl-3-phenylpyrrolidin-1-yl)-[1,2,4]triazolo[1,5-a]pyridin-2-yl)-2-oxabicyclo[2.1.1]hexan-4-yl)methyl)ethanesulfonamide] | ***** (>2.5° C.=*****) |  | 
3 | Cc1cc(N2CC[C@](C)(c3ccccc3)C2)cn2nc(C(=O)NC3(CO)CCOCC3)nc12 [Compound 131] |  | ***** (>2.5° C.=*****) | 
4 | Cc1cc(N2CC[C@](C)(c3ccccc3)C2)cn2nc(C(=O)N3CCn4c(nnc4-c4cccc(C(=O)O)n4)C3)nc12 [Compound 408] |  | ***** (>2.5° C.=*****) | 
5 | Cc1cc(N2CC[C@](C)(c3ccccc3)C2)cn2nc(C(=O)NC3CCN(c4ccnc(C(=O)O)c4)CC3)nc12 [Compound 264] |  | ***** (>2.5° C.=*****) | 
6 | CCS(=O)(=O)NCc1cc(N2CC[C@](C)(c3ccccc3)C2)cn2nc(C(=O)NC)nc12 [Compound 349] |  | ***** (>2.5° C.=*****) | 
7 | Cc1cc(OC[C@H](C)c2ccccc2)cn2nc(C34CC(CO3)C4Cn3ncnc3C)nc12 (stereo partly drawn) [Compound 486, 8-methyl-2-[5-[(5-methyl-1,2,4-triazol-1-yl)methyl]-2-oxabicyclo[2.1.1]hexan-1-yl]-6-[(2R)-2-phenylpropoxy]-[1,2,4]triazolo[1,5-a]pyridine] | **** (>1.5-2.5° C.=****) |  | 
8 | Cc1cc(N2CC[C@](C)(c3ccccc3)C2)cn2nc(C34CC(CO3)C4c3nc(NC(=O)C4CC(C)(C(=O)O)C4)n[nH]3)nc12 (some centres unmarked) [Compound 555] | ***** (>2.5° C.=*****) |  | 
9 | Cc1cc(N2CC[C@](C)(c3ccccc3)C2)cn2nc(C(=O)N[C@H]3COCC[C@@H]3O)nc12 [Compound 157] |  | ***** (>2.5° C.=*****) | 
10 | Cc1cc(N2CC[C@](C)(c3ccccc3)C2)cn2nc(C(=O)N3CCOC(C(=O)O)C3)nc12 (some centres unmarked) [Compound 176] |  | ***** (>2.5° C.=*****) | 
11 | Cc1cc(N2CC[C@](C)(c3ccccc3)C2)cn2nc(C(=O)NC3CC4(CCN4c4cccc(C(=O)O)n4)C3)nc12 (some centres unmarked) [Compound 667] | ***** (>2.5° C.=*****) |  | 
12 | Cc1cc(N2CC[C@](C)(c3ccccc3)C2)cn2nc(C(=O)NC3CC4(C3)CC(N3CC5C(C3)C5C(N)=O)C4)nc12 (some centres unmarked) [Compound 367] |  | ***** (>2.5° C.=*****) | 
13 | Cc1cc(N2CC[C@@](C)(n3ccc(C(F)(F)F)n3)C2)cn2nc(C(=O)N[C@@H]3CCN(c4cccc(C(=O)O)n4)CC34COC4)nc12 [Compound 701] | ***** (>2.5° C.=*****) |  | 
14 | CC(C)(O)CNC(=O)c1nc2c(CO)cc(N3CC[C@](C)(c4ccccc4)C3)cn2n1 [Compound 350] |  | ***** (>2.5° C.=*****) | 
15 | Cc1cc(OCC2(c3ccccc3)CC2)cn2nc(C34CC(CO3)C4N)nc12 (centres unmarked) [Compound 96] |  | **** (>1.5-2.5° C.=****) | 
16 | Cc1cc(N2CC[C@](C)(c3ccccc3)C2)cn2nc(C(=O)N3CC(CNc4cccc(C(=O)O)n4)C(C)(O)C3)nc12 (stereo partly drawn) [Compound 696, 6-(((4-hydroxy-4-methyl-1-(8-methyl-6-((R)-3-methyl-3-phenylpyrrolidin-1-yl)-[1,2,4]triazolo[1,5-a]pyridine-2-carbonyl)pyrrolidin-3-yl)methyl)amino)picolinic acid] | ***** (>2.5° C.=*****) |  | 
17 | Cc1cc(N2CC[C@](C)(c3ccccc3)C2)cn2nc(C34CC(N5CCC(C(=O)O)CC5=O)(CO3)C4CO)nc12 (stereo partly drawn) [Compound 546, 1-(5-(hydroxymethyl)-1-(8-methyl-6-((R)-3-methyl-3-phenylpyrrolidin-1-yl)-[1,2,4]triazolo[1,5-a]pyridin-2-yl)-2-oxabicyclo[2.1.1]hexan-4-yl)-2-oxopiperidine-4-carboxylic acid] | ***** (>2.5° C.=*****) |  | 
18 | Cc1cc(N2CC[C@](C)(c3ccccc3)C2)cn2nc(C(=O)NC3CCN(c4cccc(-c5nnn[nH]5)n4)CC3)nc12 [Compound 285] |  | ***** (>2.5° C.=*****) | 
19 | Cc1cc(N2CC[C@](C)(c3ccccc3)C2)cn2nc(C(=O)N3Cc4nc(-c5cccc(C(=O)O)n5)oc4C3)nc12 [Compound 250] |  | ***** (>2.5° C.=*****) | 
20 | COC(C)(CC(=O)N1CC2(CC(NC(=O)c3nc4c(C)cc(N5CC[C@](C)(c6ccccc6)C5)cn4n3)C2)C1)C(=O)O (some centres unmarked) [Compound 679] | ***** (>2.5° C.=*****) |  | 
21 | Cc1cccc([C@@]2(C)CCN(c3cc(C)c4nc(C(=O)N5CC[C@@]6(CCN(c7cccc(C(=O)O)n7)C6)C5)nn4c3)C2)c1 [Compound 416] |  | ***** (>2.5° C.=*****) | 
22 | COCC(C)(O)CNC(=O)c1nc2c(C)cc(N3CC[C@](C)(c4ccccc4)C3)cn2n1 (some centres unmarked) [Compound 138] |  | ***** (>2.5° C.=*****) | 

Row | Compound | DSF [1] | DSF [2] | other results
23 | Cc1cc(N2CC[C@](C)(c3ccccc3)C2)cn2nc(C(=O)NC3C4CCC3NC4)nc12 (some centres unmarked) [Compound 201] |  | ***** (>2.5° C.=*****) | 
24 | CNC(=O)C12CC(NC(=O)c3nc4c(C)cc(N5CC[C@](C)(c6ccccc6)C5)cn4n3)(CO1)C2 [Compound 597] | ***** (>2.5° C.=*****) |  | 
25 | Cc1cc(N2CC[C@](C)(c3ccccc3)C2)cn2nc(C(=O)NC3CC4(C3)CC(N3CC5C(C3)C5C(=O)O)C4)nc12 (some centres unmarked) [Compound 379] |  | ***** (>2.5° C.=*****) | 
26 | Cc1cc(N2CC[C@](C)(c3ccccc3)C2)cn2nc(C34CC(CNC(=O)CC(C)(C)O)(CO3)C4)nc12 [Compound 457, (R)-3-hydroxy-3-methyl-N-((1-(8-methyl-6-(3-methyl-3-phenylpyrrolidin-1-yl)-[1,2,4]triazolo[1,5-a]pyridin-2-yl)-2-oxabicyclo[2.1.1]hexan-4-yl)methyl)butanamide] | ***** (>2.5° C.=*****) |  | 
27 | Cc1cc(N2CC[C@](C)(c3ccccc3)C2)cn2nc(C(=O)NC3CC4(COC4)C3)nc12 [Compound 18, (R)-8-methyl-6-(3-methyl-3-phenylpyrrolidin-1-yl)-N-(2-oxaspiro[3.3]heptan-6-yl)-[1,2,4]triazolo[1,5-a]pyridine-2-carboxamide] |  | ***** (>2.5° C.=*****) | 
28 | Cc1cc(N2CCC(C)(n3cc(C(F)(F)F)cn3)C2)cn2nc(C(=O)N3CC[C@@]4(CCN(c5cccc(C(=O)O)n5)C4)C3)nc12 (stereo partly drawn) [Compound 744, 6-[(5R)-2-[8-methyl-6-[3-methyl-3-[4-(trifluoromethyl)pyrazol-1-yl]pyrrolidin-1-yl]-[1,2,4]triazolo[1,5-a]pyridine-2-carbonyl]-2,7-diazaspiro[4.4]nonan-7-yl]pyridine-2-carboxylic acid] | ***** (>2.5° C.=*****) |  | 
29 | CCC1(c2ccc(C)cc2)CN(c2cc(C)c3nc(C(=O)N4C[C@@H]5CN(c6cccc(C(=O)O)n6)C[C@@H]5C4)nn3c2)C1 [Compound 396] |  | ***** (>2.5° C.=*****) | 
30 | Cc1cc(N2CCC(C)(c3c(F)cccc3F)C2)cn2nc(C(=O)N3C[C@@H]4CN(c5cccc(C(=O)O)n5)C[C@@H]4C3)nc12 (some centres unmarked) [Compound 389] |  | ***** (>2.5° C.=*****) | 
31 | Cc1cc(OC[C@H](C)c2ccccc2)cn2nc(C(=O)O)nc12 [Compound 312] |  | **** (>1.5-2.5° C.=****) | 
32 | Cc1cc(N2CC[C@](C)(c3ccccc3)C2)cn2nc(C(=O)N3CC4CC(C(=O)O)CC4C3)nc12 (some centres unmarked) [Compound 592] | ***** (>2.5° C.=*****) |  | 
33 | Cc1cc(N2CC[C@](C)(c3ccccc3)C2)cn2nc(C34CC(CN)(CO3)C4C(N)=O)nc12 (some centres unmarked) [Compound 44] |  | ***** (>2.5° C.=*****) | 
34 | Cc1cc(N2CC[C@](C)(c3ccccc3)C2)cn2nc([C@@]34C[C@@H](CO3)[C@H]4N3CC4(CC4)NC3=O)nc12 [Compound 524] | ***** (>2.5° C.=*****) |  | 
35 | Cc1ncn(CC23CC(C(N)=O)(C2)C(c2nc4c(C)cc(N5CC[C@](C)(c6ccccc6)C5)cn4n2)O3)n1 (some centres unmarked) [Compound 95] |  | ***** (>2.5° C.=*****) | 
36 | Cc1cc(N2CC[C@](C)(c3ccccc3)C2)cn2nc(C(=O)NC34CC3CN(c3cccc(C(=O)O)n3)C4)nc12 (some centres unmarked) [Compound 232] |  | ***** (>2.5° C.=*****) | 
37 | CNS(=O)(=O)c1nc2c(C)cc(N3CC[C@](C)(c4ccccc4)C3)cn2n1 [Compound 324] |  | ***** (>2.5° C.=*****) | 
38 | Cc1cc(N2CC[C@](C)(c3ccccc3)C2)cn2nc(C(=O)NC3CCN(c4cccnc4C(=O)O)CC3)nc12 [Compound 265] |  | ***** (>2.5° C.=*****) | 
39 | Cc1cc(N2CC[C@](C)(c3ccccc3)C2)cn2nc(C(=O)NC3CCN(c4ccnc(C(=O)O)c4)C3)nc12 (some centres unmarked) [Compound 277] |  | ***** (>2.5° C.=*****) | 
40 | Cc1cc(N2CC[C@](C)(c3ccccc3)C2)cn2nc(C(=O)N3C[C@@H]4CN(c5cccc(C(=O)O)n5)C[C@@H]4C3)nc12 [Compound 194] |  | ***** (>2.5° C.=*****) | 
41 | Cc1cc(N2CC[C@](C)(c3ccccc3)C2)cn2nc(C34CC(CO)(CO3)C4N3CC4(CC4)NC3=O)nc12 (stereo partly drawn) [Compound 576, 6-(4-(hydroxymethyl)-1-(8-methyl-6-((R)-3-methyl-3-phenylpyrrolidin-1-yl)-[1,2,4]triazolo[1,5-a]pyridin-2-yl)-2-oxabicyclo[2.1.1]hexan-5-yl)-4,6-diazaspiro[2.4]heptan-5-one] |  |  | DSF: ***** (key: 0-0.5° C.=*; >0.5-1 °C =**; >1-1.5° C.=***; >1.5-2.5° C.=****; >2.5° C.=*****)
42 | Cc1cc(N2CC[C@](C)(c3ccccc3)C2)cn2nc(C(=O)N[C@@H]3CN[C@H](C(C)(C)O)C3)nc12 [Compound 162] |  | ***** (>2.5° C.=*****) | 
43 | COC(C)(CS(=O)(=O)NCC12COC(c3nc4c(C)cc(N5CC[C@](C)(c6ccccc6)C5)cn4n3)(C1)C2c1n[nH]c(C)n1)C(=O)O (some centres unmarked) [Compound 585] | ***** (>2.5° C.=*****) |  | 
44 | CC(=O)N[C@@]12CO[C@@](c3nc4c(C)cc(N5CC[C@](C)(c6ccccc6)C5)cn4n3)(C1)[C@@H]2CO [Compound 544, N-((1S,4S,5S)-5-(hydroxymethyl)-1-(8-methyl-6-((R)-3-methyl-3-phenylpyrrolidin-1-yl)-[1,2,4]triazolo[1,5-a]pyridin-2-yl)-2-oxabicyclo[2.1.1]hexan-4-yl)acetamide] | ***** (>2.5° C.=*****) |  | 
